Results published in patent US9315505B2, “Heterocyclic compounds and uses thereof” (INTELLIKINE LLC, priority 2009, dated 2016).

How the values were obtained:
PI3K γ = biological target: T1, PI3K γ (Homo sapiens, UniProt P48736); assay: In vitro IC50, PI3K γ (p110γ inhibition assay); assay type: biochemical; details: in vitro kinase assay
T1 construct: purchased Sigma
Experimental: (§1) Class I PI3-Ks can be either purchased (p110α/p85α, p110β/p85α, p110δ/p85α from Upstate, and p110γ from Sigma) or expressed as previously described (Knight et al., 2004). IC50 values are measured using either a standard TLC assay for lipid kinase activity (described below) or a high-throughput membrane capture assay. Kinase reactions are performed by preparing a reaction mixture containing kinase, inhibitor (2% DMSO final concentration), buffer (25 mM HEPES, pH 7.4, 10 mM MgCl2), and freshly sonicated phosphatidylinositol (100 μg/ml). Reactions are initiated by the addition of ATP containing 10 μCi of γ-32P-ATP to a final concentration 10 or 100 μM and allowed to proceed for 5 minutes at room temperature. For TLC analysis, reactions are then terminated by the addition of 105 μl 1N HCl followed by 160 μl CHCl3:MeOH (1:1). The biphasic mixture is vortexed, briefly centrifuged, and the organic phase is transferred to a new tube using a gel loading pipette tip precoated with CHCl3. This extract is spotted on TLC plates and developed for 3-4 hours in a 65:35 solution of n-propanol:1M acetic acid. The TLC plates are then dried, exposed to a phosphorimager screen (Storm, Amersham), and quantitated. For each compound, kinase activity is measured at 10-12 inhibitor concentrations representing two-fold dilutions from the highest concentration tested (typically, 200 μM).
(§2) Other commercial kits or systems for assaying PI3-K activities are available. The commercially available kits or systems can be used to screen for inhibitors and/or agonists of PI3-Ks including but not limited to PI 3-Kinase α, β, δ, and γ. An exemplary system is PI 3-Kinase (human) HTRF™ Assay from Upstate. […] Briefly, the assay is a time resolved FRET assay that indirectly measures PIP3 product formed by the activity of a PI3-K. The kinase reaction is performed in a microtitre plate (e.g., a 384 well microtitre plate). The total reaction volume is approximately 20 ul per well. In the first step, each well receives 2 ul of test compound in 20% dimethylsulphoxide resulting in a 2% DMSO final concentration. Next, approximately 14.5 ul of a kinase/PIP2 mixture (diluted in 1× reaction buffer) is added per well for a final concentration of 0.25-0.3 ug/ml kinase and 10 uM PIP2. The plate is sealed and incubated for 15 minutes at room temperature. To start the reaction, 3.5 ul of ATP (diluted in 1× reaction buffer) is added per well for a final concentration of 10 uM ATP. The plate is sealed and incubated for 1 hour at room temperature. The reaction is stopped by adding 5 ul of Stop Solution per well and then 5 ul of Detection Mix is added per well. The plate is sealed, incubated for 1 hour at room temperature, and then read on an appropriate plate reader. Data is analyzed and IC50s are generated using GraphPad Prism 5.

Balb/c splenic B cells = assay: B cell activation and proliferation assay (Alamar Blue); assay type: cell-based; details: Mus musculus, read-out: B cell proliferation EC50
Experimental: The ability of one or more subject compounds to inhibit B cell activation and proliferation is determined according to standard procedures known in the art. For example, an in vitro cellular proliferation assay is established that measures the metabolic activity of live cells. The assay is performed in a 96 well microtiter plate using Alamar Blue reduction. Balb/c splenic B cells are purified over a Ficoll-Paque™ PLUS gradient followed by magnetic cell separation using a MACS B cell Isolation Kit (Miletenyi). Cells are plated in 90 ul at 50,000 cells/well in B Cell Media (RPMI+10% FBS+Penn/Strep+50 uM bME+5 mM HEPES). A compound disclosed herein is diluted in B Cell Media and added in a 10 ul volume. Plates are incubated for 30 min at 37 C and 5% CO2 (0.2% DMSO final concentration). A 50 ul B cell stimulation cocktail is then added containing either 10 ug/ml LPS or 5 ug/ml F(ab′)2 Donkey anti-mouse IgM plus 2 ng/ml recombinant mouse IL4 in B Cell Media. Plates are incubated for 72 hours at 37° C. and 5% CO2. A volume of 15 uL of Alamar Blue reagent is added to each well and plates are incubated for 5 hours at 37 C and 5% CO2. Alamar Blue fluoresce is read at 560Ex/590Em, and IC50 or EC50 values are calculated using GraphPad Prism 5.

PI3K α = biological target: T2, PI3K α (Homo sapiens, UniProt P42336); assay: In vitro IC50, PI3K α (p110α/p85α inhibition assay); assay type: biochemical; details: in vitro kinase assay; read-out: IC50(nM) PI3K α
T2 construct: purchased Upstate
Experimental: as §1, with “IC50” for “Class I PI3-Ks can be either purchased (p110α/p85α, p110β/p85α, p110δ/p85α from Upstate, and p110γ from Sigma) or expressed as previously described (Knight et al., 2004). IC50”, “quantitated.” for “quantitated. For each compound, kinase activity is measured at 10-12 inhibitor concentrations representing two-fold dilutions from the highest concentration tested (typically, 200 μM).”
as §2

PI3K δ = biological target: T3, PI3K δ (Homo sapiens, UniProt O00329); assay: In vitro IC50, PI3K δ (p110δ/p85α inhibition assay); assay type: biochemical; details: in vitro kinase assay; read-out: IC50(nM) PI3K δ
T3 construct: purchased Upstate
Experimental: as §1, with “IC50” for “Class I PI3-Ks can be either purchased (p110α/p85α, p110β/p85α, p110δ/p85α from Upstate, and p110γ from Sigma) or expressed as previously described (Knight et al., 2004). IC50”, “quantitated.” for “quantitated. For each compound, kinase activity is measured at 10-12 inhibitor concentrations representing two-fold dilutions from the highest concentration tested (typically, 200 μM).”
as §2

T2 sequence (P42336 whole entry): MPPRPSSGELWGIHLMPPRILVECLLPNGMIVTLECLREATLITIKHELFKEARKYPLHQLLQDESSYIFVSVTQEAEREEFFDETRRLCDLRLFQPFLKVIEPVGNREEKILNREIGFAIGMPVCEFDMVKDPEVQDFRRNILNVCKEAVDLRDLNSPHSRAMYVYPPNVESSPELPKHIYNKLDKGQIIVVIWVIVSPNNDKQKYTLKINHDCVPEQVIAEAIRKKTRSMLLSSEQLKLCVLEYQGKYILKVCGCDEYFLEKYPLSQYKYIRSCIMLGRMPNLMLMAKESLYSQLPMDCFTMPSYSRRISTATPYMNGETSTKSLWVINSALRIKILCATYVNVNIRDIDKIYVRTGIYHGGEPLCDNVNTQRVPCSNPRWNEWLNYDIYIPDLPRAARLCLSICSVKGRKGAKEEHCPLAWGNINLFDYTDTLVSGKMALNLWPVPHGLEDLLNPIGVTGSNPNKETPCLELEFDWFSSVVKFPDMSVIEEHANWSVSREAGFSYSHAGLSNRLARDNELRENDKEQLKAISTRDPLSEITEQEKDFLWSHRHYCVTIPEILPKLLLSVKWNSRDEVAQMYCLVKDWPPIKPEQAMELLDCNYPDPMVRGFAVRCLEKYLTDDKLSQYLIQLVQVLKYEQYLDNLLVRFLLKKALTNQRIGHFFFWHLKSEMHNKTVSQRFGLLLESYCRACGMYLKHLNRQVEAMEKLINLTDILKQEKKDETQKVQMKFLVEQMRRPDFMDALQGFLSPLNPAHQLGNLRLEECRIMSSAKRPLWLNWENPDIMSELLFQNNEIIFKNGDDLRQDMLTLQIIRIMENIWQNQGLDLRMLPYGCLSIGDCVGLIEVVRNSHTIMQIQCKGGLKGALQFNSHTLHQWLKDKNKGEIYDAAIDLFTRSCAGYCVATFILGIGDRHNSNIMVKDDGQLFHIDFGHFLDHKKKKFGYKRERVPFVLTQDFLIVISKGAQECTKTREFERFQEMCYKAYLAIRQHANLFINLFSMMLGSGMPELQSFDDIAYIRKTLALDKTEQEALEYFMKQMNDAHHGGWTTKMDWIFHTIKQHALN
T2 sequence (P27986 whole entry partner): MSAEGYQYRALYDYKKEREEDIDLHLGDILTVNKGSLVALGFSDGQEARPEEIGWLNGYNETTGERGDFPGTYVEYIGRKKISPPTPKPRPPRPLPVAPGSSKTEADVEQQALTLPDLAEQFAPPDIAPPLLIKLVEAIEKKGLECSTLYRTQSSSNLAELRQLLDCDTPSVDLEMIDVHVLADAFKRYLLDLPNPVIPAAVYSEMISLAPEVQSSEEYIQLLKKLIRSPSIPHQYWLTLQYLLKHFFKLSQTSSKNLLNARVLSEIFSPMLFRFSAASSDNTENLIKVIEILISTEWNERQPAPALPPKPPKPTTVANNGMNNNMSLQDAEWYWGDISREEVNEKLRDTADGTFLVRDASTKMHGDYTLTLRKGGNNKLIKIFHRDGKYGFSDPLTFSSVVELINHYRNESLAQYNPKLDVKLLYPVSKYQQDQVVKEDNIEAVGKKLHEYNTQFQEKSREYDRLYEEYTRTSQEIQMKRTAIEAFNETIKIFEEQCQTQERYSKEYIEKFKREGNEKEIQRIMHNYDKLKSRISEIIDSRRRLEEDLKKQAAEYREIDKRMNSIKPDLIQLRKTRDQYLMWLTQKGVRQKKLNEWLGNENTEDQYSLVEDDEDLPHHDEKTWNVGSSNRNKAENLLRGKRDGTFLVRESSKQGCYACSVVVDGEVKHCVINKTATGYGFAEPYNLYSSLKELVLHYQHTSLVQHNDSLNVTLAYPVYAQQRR
T1 sequence (P48736 whole entry): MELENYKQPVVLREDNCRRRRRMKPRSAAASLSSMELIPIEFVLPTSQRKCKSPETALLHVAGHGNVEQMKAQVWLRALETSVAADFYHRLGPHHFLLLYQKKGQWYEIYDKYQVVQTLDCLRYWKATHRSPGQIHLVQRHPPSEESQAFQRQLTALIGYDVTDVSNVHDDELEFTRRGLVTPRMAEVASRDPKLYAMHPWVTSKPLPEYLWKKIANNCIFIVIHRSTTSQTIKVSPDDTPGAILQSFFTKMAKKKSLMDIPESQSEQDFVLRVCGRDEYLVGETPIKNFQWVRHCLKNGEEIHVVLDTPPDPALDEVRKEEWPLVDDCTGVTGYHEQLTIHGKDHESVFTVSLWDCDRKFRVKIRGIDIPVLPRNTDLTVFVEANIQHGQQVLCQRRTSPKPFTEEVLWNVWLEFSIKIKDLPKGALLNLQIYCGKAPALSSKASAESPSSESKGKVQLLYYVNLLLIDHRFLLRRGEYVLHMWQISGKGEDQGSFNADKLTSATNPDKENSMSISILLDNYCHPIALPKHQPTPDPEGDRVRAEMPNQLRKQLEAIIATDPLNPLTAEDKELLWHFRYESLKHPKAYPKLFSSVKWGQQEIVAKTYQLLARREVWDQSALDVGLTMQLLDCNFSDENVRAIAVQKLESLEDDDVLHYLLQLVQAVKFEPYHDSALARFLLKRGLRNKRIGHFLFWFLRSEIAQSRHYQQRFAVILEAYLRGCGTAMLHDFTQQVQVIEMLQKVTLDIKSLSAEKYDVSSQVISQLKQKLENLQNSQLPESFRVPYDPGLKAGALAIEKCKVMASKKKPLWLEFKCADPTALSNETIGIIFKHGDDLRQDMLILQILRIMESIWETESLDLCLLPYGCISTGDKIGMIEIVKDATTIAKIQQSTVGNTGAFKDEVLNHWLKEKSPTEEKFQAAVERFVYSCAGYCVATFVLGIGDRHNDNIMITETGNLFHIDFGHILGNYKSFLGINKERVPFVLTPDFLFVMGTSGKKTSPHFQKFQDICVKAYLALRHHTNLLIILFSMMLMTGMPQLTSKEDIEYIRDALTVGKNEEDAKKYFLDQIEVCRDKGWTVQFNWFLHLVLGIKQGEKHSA
T3 sequence (O00329 whole entry): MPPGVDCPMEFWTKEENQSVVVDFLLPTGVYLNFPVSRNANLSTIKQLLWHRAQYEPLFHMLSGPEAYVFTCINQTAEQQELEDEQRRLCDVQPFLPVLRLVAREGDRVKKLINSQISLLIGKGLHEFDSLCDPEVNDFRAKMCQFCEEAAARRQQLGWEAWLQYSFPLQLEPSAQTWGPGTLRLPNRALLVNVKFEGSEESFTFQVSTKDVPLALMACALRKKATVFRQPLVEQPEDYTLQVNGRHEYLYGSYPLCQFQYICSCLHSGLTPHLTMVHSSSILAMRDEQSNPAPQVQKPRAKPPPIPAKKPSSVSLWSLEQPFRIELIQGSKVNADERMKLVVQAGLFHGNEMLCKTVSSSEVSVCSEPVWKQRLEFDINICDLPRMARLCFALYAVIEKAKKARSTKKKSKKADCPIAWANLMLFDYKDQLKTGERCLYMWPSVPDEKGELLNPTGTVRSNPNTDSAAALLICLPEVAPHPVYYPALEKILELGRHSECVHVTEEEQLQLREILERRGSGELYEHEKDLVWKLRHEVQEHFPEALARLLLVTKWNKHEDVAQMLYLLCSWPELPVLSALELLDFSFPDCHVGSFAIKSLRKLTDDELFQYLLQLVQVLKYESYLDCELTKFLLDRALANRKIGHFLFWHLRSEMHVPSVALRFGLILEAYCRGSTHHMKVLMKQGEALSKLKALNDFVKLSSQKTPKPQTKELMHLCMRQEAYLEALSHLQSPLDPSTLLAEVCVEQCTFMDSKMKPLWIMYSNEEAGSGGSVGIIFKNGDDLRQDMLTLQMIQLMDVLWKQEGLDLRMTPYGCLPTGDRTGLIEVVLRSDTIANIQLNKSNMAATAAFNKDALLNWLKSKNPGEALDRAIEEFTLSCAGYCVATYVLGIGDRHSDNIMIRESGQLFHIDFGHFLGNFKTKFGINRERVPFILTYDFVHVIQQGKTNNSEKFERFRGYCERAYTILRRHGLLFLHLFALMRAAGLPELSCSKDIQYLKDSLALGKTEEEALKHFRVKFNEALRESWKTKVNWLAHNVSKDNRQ
T3 sequence (P27986 whole entry partner): as the sequence (P27986 whole entry partner) above

SMILES	IC50 (PI3K γ)	EC50 (Balb/c splenic B cells)	IC50 (PI3K α)	IC50 (PI3K δ)
Cc1cccc2cc(C(C)Nc3ncnc4[nH]cnc34)nc(CCN3CCN(C)CC3)c12 (centres unmarked) [Compound 20]	> 10000 nM	< 100 nM	> 10000 nM	< 100 nM
Cc1cccc2cc(Cn3nc(-c4ccc5oc(N)nc5c4)c4c(N)ncnc43)nc(CCN3CCN(C)CC3)c12 [Compound 25]	< 1000 nM	< 100 nM	< 1000 nM	< 100 nM
Cc1cccc2cc(Cn3nc(-c4ccc5oc(N)nc5c4)c4c(N)ncnc43)nc(N3CCCC3)c12 [Compound 26]	< 100 nM	< 1000 nM	< 1000 nM	< 100 nM
Cc1cccc2cc(Cn3nc(-c4ccc5nc(N)sc5c4)c4c(N)ncnc43)nc(OC(C)C)c12 [Compound 31]	< 100 nM	< 1000 nM	< 100 nM	< 100 nM
CC(Nc1ncnc2[nH]cnc12)c1cc2ccccc2c(OC2CCN(C(C)C)CC2)n1 (centres unmarked) [Compound 35]	> 10000 nM	< 100 nM	> 10000 nM	< 1000 nM
Cc1cccc2cc(C(C)Nc3ncnc4[nH]cnc34)nc(CCN3CCN(S(C)(=O)=O)CC3)c12 (centres unmarked) [Compound 50]	< 10000 nM	< 100 nM	< 10000 nM	< 100 nM
CC(Nc1ncnc2[nH]cnc12)c1cc2cccc(Cl)c2c(OC2CCN(S(C)(=O)=O)CC2)n1 (centres unmarked) [Compound 54]	> 10000 nM	< 1000 nM	> 10000 nM	< 1000 nM
CN1CCC(Oc2nc(Cn3nc(-c4cn[nH]c4)c4c(N)ncnc43)cc3cccc(Cl)c23)CC1 [Compound 55]	> 10000 nM	< 100 nM	> 10000 nM	< 100 nM
CCN1CCC(Oc2nc(Cn3nc(-c4cn[nH]c4)c4c(N)ncnc43)cc3cccc(Cl)c23)CC1 [Compound 56]	> 10000 nM	< 100 nM	> 10000 nM	< 1000 nM
CC(C)N1CCC(Oc2nc(Cn3nc(-c4cn[nH]c4)c4c(N)ncnc43)cc3cccc(Cl)c23)CC1 [Compound 57]	> 10000 nM	< 100 nM	> 10000 nM	< 100 nM
CS(=O)(=O)N1CCC(Oc2nc(Cn3nc(-c4cn[nH]c4)c4c(N)ncnc43)cc3cccc(Cl)c23)CC1 [Compound 58]	> 10000 nM	< 1000 nM	> 10000 nM	< 1000 nM
CC(Nc1ncnc2[nH]cnc12)c1cc2cccc(Cl)c2c(CN2CCN(S(C)(=O)=O)CC2)n1 (centres unmarked) [Compound 59]	> 10000 nM	< 1000 nM	> 10000 nM	< 1000 nM
C[C@H](Nc1ncnc2[nH]cnc12)c1cc2cccc(Cl)c2c(OC2CCN(S(C)(=O)=O)CC2)n1 [Compound 60]	< 10000 nM	< 1000 nM	> 10000 nM	< 1000 nM
Cc1cccc2cc([C@H](C)Nc3ncnc4[nH]cnc34)nc(OC3CCN(S(C)(=O)=O)CC3)c12 [Compound 61]	< 10000 nM	< 1000 nM	> 10000 nM	< 1000 nM
C[C@H](Nc1ncnc2[nH]cnc12)c1cc2cccc(Cl)c2c(N2CCOCC2)n1 [Compound 62]	< 10000 nM	< 1000 nM	> 10000 nM	< 1000 nM
C[C@H](Nc1ncnc2[nH]cnc12)c1cc2cccc(Cl)c2c(N2CCCC2)n1 [Compound 63]	< 10000 nM	< 1000 nM	> 10000 nM	< 100 nM
C[C@H](Nc1ncnc2[nH]cnc12)c1cc2cccc(Cl)c2c(OCCN2CCOCC2)n1 [Compound 65]	< 1000 nM	< 100 nM	< 10000 nM	< 100 nM
Nc1ncnc2c1c(-c1cn[nH]c1)nn2Cc1cc2cccc(Cl)c2c(N2CCOCC2)n1 [Compound 66]	< 1000 nM	< 100 nM	< 10000 nM	< 100 nM
CS(=O)(=O)N1CCN(c2nc(Cn3nc(-c4cn[nH]c4)c4c(N)ncnc43)cc3cccc(Cl)c23)CC1 [Compound 67]	< 1000 nM	< 1000 nM	< 10000 nM	< 100 nM
Nc1ncnc2c1c(-c1cn[nH]c1)nn2Cc1cc2cccc(Cl)c2c(N2CCCC2)n1 [Compound 68]	< 1000 nM	< 1000 nM	< 10000 nM	< 100 nM
